Results on 28 compounds are retold here after a melting point compilation (Tetko et al.; mined from patent text by program, amines drawn as free bases though some values may be those of a salt).

SMILES strings stand for the structures.

Take `O=C1NC(=O)C(c2ccc(NC(=O)c3ccccc3)cc2)S1` (stereo not drawn): the melting point (commonly the temperature of the solid-liquid transition) lay in the range of 240 to 245 °C.

In the case of `Cc1nc(C)c(Cl)c(NCc2nccc(OCCOCCSCCn3c([N+](=O)[O-])cnc3C)c2C)n1`, the melting point was 102 to 105 °C.

In turn, `NC(=O)CCn1c2ccc(O)cc2c2c3c(c(-c4c(Cl)cccc4Cl)cc21)C(=O)NC3=O` came in with a melting point of 327 to 329 °C.

As for `COc1ccc(OC)c(CC(NC(=O)CC(C2CCCCC2)C2CCCCC2)C(=O)OC(C)(C)C)c1` (stereo not drawn), the melting point was 108 to 111 °C.

Turning to `COC(=O)c1nccnc1NCc1ccncc1`, the melting point came to 95 °C.

In turn, `O=C1N(Cc2nnc(-c3ccccc3)o2)c2ccccc2C12COc1cc3c(cc12)OCO3` (stereo not drawn) came in with a melting point of 151 to 153 °C.

As to `O=C(O)c1cccc2ncc(C3CCCCC3)cc12`, the melting point is more than 280 °C.

For the compound `Cc1csc2c(C=O)ncn12`, the melting point fell in the range of 172 to 175 °C.

Take `CN(C)c1nn(-c2cc(F)c(C#N)cc2F)c(=O)n1C(F)F`: the melting point was in the range of 188 to 190 °C.

Compound `COc1nc(C(F)(F)F)cc(=O)n1-c1cc(OC(C)C)c(Br)cc1F` returned a melting point of 137 °C.

For the compound `CC(Nc1ncnc2c1ncn2C1OC(CO)C(O)C1O)c1ccccc1` (stereo not drawn), the melting point lay within 165 to 167 °C.

Regarding `CC1(C)OC(=C(C#N)C#N)C(C#N)=C1c1ccc(Br)cc1`, the melting point was 235 °C.

Compound `COc1cc2ncnc(N3CCN(C(=O)NCc4cccnc4)CC3)c2cc1OC` had a melting point of 188 to 189 °C.

Regarding `O=C(CCBr)OCN1C(=O)NC(c2ccccc2)(c2ccccc2)C1=O`, the melting point was in the range of 133 to 134 °C.

Compound `CCCCCC(Cc1cnc(CCCC)n1Cc1ccccc1Cl)C(=O)O` (stereo not drawn) returned a melting point of 124 to 127 °C.

`CC(C(=O)NC(C)(C#N)C(C)C)c1ccc(Br)cc1` (stereo not drawn) registered a melting point of 98 to 99 °C.

The compound `COc1cc(OCc2ccccn2)ccc1/C=C/c1cc(/C=C/c2cccc3ncccc23)[nH]n1` showed a melting point of 107 to 120 °C.

`CCN(CC)C(=O)c1cc2ccccc2c(-c2ccc(Cl)cc2)n1` had a melting point of 122 °C.

The compound `CCOCc1nc2c(N)nc3cc(O)ccc3c2n1CC(C)(C)NC(C)=O` came in with a melting point of 140 °C.

The compound `Cc1c(-c2ccc(OC3CCCC3)cc2)n(Cc2ccc(OCCBr)cc2)c2ccc(OCc3ccccc3)cc12` displayed a melting point of 110 to 112 °C.

As to `COc1cc2cc(C(=O)N3CC(CCl)c4c3cc(NCCNC(=O)OC(C)(C)C)c3ccccc43)[nH]c2c(OC)c1OC` (stereo not drawn), the melting point fell in the range of 110 to 115 °C.

Turning to `CCCc1cnc2c(NC(=O)c3c(Cl)cccc3Cl)cccc2c1NNC(C)=O`, the melting point lay within 223 to 226 °C.

`COc1cc2c(cc1Nc1ncc(Cl)c(Nc3ccccc3C(=O)OC(C)C)n1)CCN(CCCN(C)C)C(=O)C2`: the melting point was in the range of 63 to 90 °C.

`CC(C)Cn1cnc2c(N)nc3c(c21)CCCN3` yielded a melting point of 231 to 233 °C.

Regarding `Cc1cc(C2=NOC(c3cc(Cl)cc(Cl)c3)(C(F)(F)F)C2)ccc1C(=O)NC1(Cl)N=CC=CN1` (stereo not drawn), the melting point fell in the range of 231 to 234 °C.

Compound `Cc1cc2c(c3c1C(c1ccc(C(C)C)cc1)CO3)CCCC2` (stereo not drawn) showed a melting point of 54 to 55 °C.

For `COc1ccc2cc([C@H](C)C(=O)OCCN(C)C(=O)c3ccc(CO[N+](=O)[O-])cc3)ccc2c1`, the melting point fell in the range of 108 to 115 °C.

Consider `CC(C)(C)C1OC1C(O)c1ccc(C(F)(F)F)cc1` (stereo not drawn), for which the melting point was 74 to 75 °C.
